Source: PubChem BioAssay AID256 (DTP/NCI, 2004)
Where “and” joins values, the source holds several entries; their conditions need not be identical. Equal entries are not always repeated. Inconclusive results and toxic doses are left out. Non-standard residues stand in square brackets, D forms with d. Residues, ends and D or L forms follow the SMILES beside them. ξ: configuration not given here. ξIva = CCC(C)(N)C(=O)O

System: CD2F1 mice, L1210 leukemia ip, survival T/C
Test: NCI In Vivo Anticancer Drug Screen. Data for tumor model L1210 Leukemia (intraperitoneal) in CD2F1 (CDF1) mice
Conditions: higher = longer survival
Summary of the method: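 Antitumor effect is scored in animals hosting a serially transplanted tumor. Values compare compound-dosed animals against vehicle-only controls as a simple quotient.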

[1] = endpoint: mean survival time, dose: 100.0 mg/kg/injection, schedule: Q04DX003 (ip), vehicle: saline with Tween-80
[2] = endpoint: mean survival time, dose: 200.0 mg/kg/injection, schedule: Q04DX003 (ip), vehicle: saline with Tween-80
[3] = endpoint: mean survival time, dose: 400.0 mg/kg/injection, schedule: Q04DX003 (ip), vehicle: saline with Tween-80
[4] = endpoint: mean survival time, dose: 100.0 mg/kg/injection, schedule: Q01DX009 (ip), vehicle: saline with Tween-80
[5] = endpoint: mean survival time, dose: 200.0 mg/kg/injection, schedule: Q01DX009 (ip), vehicle: saline with Tween-80
[6] = endpoint: mean survival time, dose: 50.0 mg/kg/injection, schedule: Q01DX009 (ip), vehicle: saline with Tween-80

COc1ccc(C(=O)c2cccc3c2-c2ccccc2C3(c2ccc(OC)c(C)c2)c2ccc(OC)c(C)c2)cc1C
T/C (endpoint: mean survival time, dose: 5.0 mg/kg/injection, schedule: Q01DX001 (ip), vehicle: other): 96 % of control
T/C (endpoint: mean survival time, dose: 10.0 mg/kg/injection, schedule: Q01DX001 (ip), vehicle: other): 88 % of control
T/C (endpoint: mean survival time, dose: 40.0 mg/kg/injection, schedule: Q01DX001 (ip), vehicle: other): 86 % of control
T/C (endpoint: mean survival time, dose: 80.0 mg/kg/injection, schedule: Q01DX001 (ip), vehicle: other): 91 % of control

c1ccc([P+](c2ccccc2)(c2ccccc2)C2CCC2)cc1
T/C (endpoint: mean survival time, dose: 9.4 mg/kg/injection, schedule: Q04DX003 (ip), vehicle: saline): 97 % of control
T/C (endpoint: mean survival time, dose: 18.8 mg/kg/injection, schedule: Q04DX003 (ip), vehicle: saline): 102 % of control
T/C (endpoint: mean survival time, dose: 37.5 mg/kg/injection, schedule: Q04DX003 (ip), vehicle: saline): 102 % of control

O=C(COC(=O)C1CCCCCCC1)c1ccc(Br)cc1
T/C (endpoint: mean survival time, dose: 100.0 mg/kg/injection, schedule: Q01DX001 (ip), vehicle: saline with Tween-80): 100 % of control
T/C [1]: 94 % of control
T/C (endpoint: mean survival time, dose: 200.0 mg/kg/injection, schedule: Q01DX001 (ip), vehicle: saline with Tween-80): 107 % of control
T/C [2]: 96 % of control
T/C (endpoint: mean survival time, dose: 400.0 mg/kg/injection, schedule: Q01DX001 (ip), vehicle: saline with Tween-80): 97 % of control
T/C [3]: 97 % of control

CCCCCCCCCCCCCC[n+]1ccccc1
T/C (endpoint: mean survival time, dose: 0.07 mg/kg/injection, schedule: Q01DX009 (ip), vehicle: saline): 93 % of control
T/C (endpoint: mean survival time, dose: 0.13 mg/kg/injection, schedule: Q01DX009 (ip), vehicle: saline): 101 % of control
T/C (endpoint: mean survival time, dose: 0.25 mg/kg/injection, schedule: Q01DX009 (ip), vehicle: saline): 103 % of control
T/C (endpoint: mean survival time, dose: 0.25 mg/kg/injection, schedule: Q04DX003 (ip), vehicle: saline sonified): 102 % of control

COc1ccc(OC)c(C(=O)CCl)c1
T/C [4]: 100 % of control
T/C [1]: 96 % of control
T/C [5]: 102 % of control
T/C [2]: 101 % of control
T/C [3]: 92 % of control

CN(C)CCOS(C)(=O)=O
T/C (endpoint: mean survival time, dose: 100.0 mg/kg/injection, schedule: Q04DX003 (ip), vehicle: saline): 100 % of control
T/C (endpoint: mean survival time, dose: 200.0 mg/kg/injection, schedule: Q04DX003 (ip), vehicle: saline): 98 % of control
T/C (endpoint: mean survival time, dose: 400.0 mg/kg/injection, schedule: Q04DX003 (ip), vehicle: saline): 100 % of control

CCC(C)(NC(=O)CN)C(=O)O (centres undefined) (H-Gly-[ξIva]-OH)
T/C (endpoint: mean survival time, dose: 100.0 mg/kg/injection, schedule: Q04DX002 (ip), vehicle: saline): 90 % of control
T/C (endpoint: mean survival time, dose: 200.0 mg/kg/injection, schedule: Q04DX002 (ip), vehicle: saline): 93 % of control
T/C (endpoint: mean survival time, dose: 400.0 mg/kg/injection, schedule: Q04DX002 (ip), vehicle: saline): 90 % of control

Cn1c(=O)c(Br)cc2ccccc21
T/C (endpoint: mean survival time, dose: 100.0 mg/kg/injection, schedule: Q01DX001 (ip), vehicle: saline): 102 % of control
T/C (endpoint: mean survival time, dose: 200.0 mg/kg/injection, schedule: Q01DX001 (ip), vehicle: saline): 96 % of control
T/C (endpoint: mean survival time, dose: 400.0 mg/kg/injection, schedule: Q01DX001 (ip), vehicle: saline): 96 % of control

C[N+](C)(C)Cc1ccccc1/C(=N\O)c1ccccc1
T/C (endpoint: mean survival time, dose: 5.0 mg/kg/injection, schedule: Q01DX009 (ip), vehicle: saline): 109 % of control
T/C (endpoint: mean survival time, dose: 5.0 mg/kg/injection, schedule: Q04DX003 (ip), vehicle: saline): 116 % of control
T/C (endpoint: mean survival time, dose: 10.0 mg/kg/injection, schedule: Q01DX009 (ip), vehicle: saline): 100 % of control
T/C (endpoint: mean survival time, dose: 10.0 mg/kg/injection, schedule: Q04DX003 (ip), vehicle: saline): 98 % of control
T/C (endpoint: mean survival time, dose: 20.0 mg/kg/injection, schedule: Q01DX009 (ip), vehicle: saline): 91 % of control
T/C (endpoint: mean survival time, dose: 20.0 mg/kg/injection, schedule: Q04DX003 (ip), vehicle: saline): 89 % of control

CN(C)N=Nc1ccccc1-c1nc(N)c2ccccc2n1
T/C (endpoint: mean survival time, dose: 6.25 mg/kg/injection, schedule: Q01DX005 (ip), vehicle: water): 103 % of control
T/C (endpoint: mean survival time, dose: 12.5 mg/kg/injection, schedule: Q01DX005 (ip), vehicle: water): 88 % of control
T/C (endpoint: mean survival time, dose: 25.0 mg/kg/injection, schedule: Q01DX005 (ip), vehicle: water): 109 % of control
T/C (endpoint: mean survival time, dose: 50.0 mg/kg/injection, schedule: Q01DX005 (ip), vehicle: water): 117 % of control
T/C (endpoint: mean survival time, dose: 100.0 mg/kg/injection, schedule: Q01DX005 (ip), vehicle: water): 98 % of control

COc1ccc(S(=O)(=O)N/N=C/C(=O)O)cc1
T/C (endpoint: mean survival time, dose: 6.25 mg/kg/injection, schedule: Q01DX009 (ip), vehicle: saline with Tween-80): 115 % of control
T/C (endpoint: mean survival time, dose: 12.5 mg/kg/injection, schedule: Q01DX009 (ip), vehicle: alkali diluted with water): 114 % of control
T/C (endpoint: mean survival time, dose: 12.5 mg/kg/injection, schedule: Q01DX009 (ip), vehicle: saline with Tween-80): 121 % of control
T/C (endpoint: mean survival time, dose: 12.5 mg/kg/injection, schedule: Q04DX003 (ip), vehicle: other): 109 % of control
T/C (endpoint: mean survival time, dose: 25.0 mg/kg/injection, schedule: Q01DX009 (ip), vehicle: alkali diluted with water): 116 % of control
T/C (endpoint: mean survival time, dose: 25.0 mg/kg/injection, schedule: Q04DX003 (ip), vehicle: other): 117 % of control
T/C (endpoint: mean survival time, dose: 50.0 mg/kg/injection, schedule: Q01DX009 (ip), vehicle: alkali diluted with water): 124 % of control
T/C [6]: 163 % of control
T/C (endpoint: mean survival time, dose: 50.0 mg/kg/injection, schedule: Q04DX003 (ip), vehicle: other): 124 % of control
T/C [4]: 151 % of control
T/C (endpoint: mean survival time, dose: 100.0 mg/kg/injection, schedule: Q04DX003 (ip), vehicle: other): 154 % of control
T/C (endpoint: mean survival time, dose: 200.0 mg/kg/injection, schedule: Q01DX009 (ip), vehicle: alkali diluted with water): 153 % of control
T/C (endpoint: mean survival time, dose: 200.0 mg/kg/injection, schedule: Q04DX003 (ip), vehicle: other): 155 % of control and 163 % of control and 203 % of control
T/C (endpoint: median survival time, dose: 12.5 mg/kg/injection, schedule: Q01DX009 (oral), vehicle: saline with Tween-80): 105 % of control
T/C (endpoint: median survival time, dose: 25.0 mg/kg/injection, schedule: Q01DX009 (oral), vehicle: saline with Tween-80): 105 % of control
T/C (endpoint: median survival time, dose: 50.0 mg/kg/injection, schedule: Q01DX009 (oral), vehicle: saline with Tween-80): 103 % of control
T/C (endpoint: median survival time, dose: 100.0 mg/kg/injection, schedule: Q01DX009 (oral), vehicle: saline with Tween-80): 95 % of control
T/C (endpoint: median survival time, dose: 200.0 mg/kg/injection, schedule: Q01DX009 (oral), vehicle: saline with Tween-80): 98 % of control
T/C (endpoint: median survival time, dose: 400.0 mg/kg/injection, schedule: Q01DX009 (oral), vehicle: saline with Tween-80): 105 % of control

CC(C)(C)OC1C2C=CC1C1C2C2(Cl)C(Cl)=C(Cl)C1(Cl)C21OCCO1 (centres undefined)
T/C (endpoint: mean survival time, dose: 41.25 mg/kg/injection, schedule: Q04DX002 (ip), vehicle: Klucel (hydroxypropylcellulose) (HPC)): 98 % of control
T/C (endpoint: mean survival time, dose: 50.0 mg/kg/injection, schedule: Q04DX002 (ip), vehicle: Klucel (hydroxypropylcellulose) (HPC)): 97 % of control
T/C (endpoint: mean survival time, dose: 82.5 mg/kg/injection, schedule: Q04DX002 (ip), vehicle: Klucel (hydroxypropylcellulose) (HPC)): 100 % of control
T/C (endpoint: mean survival time, dose: 100.0 mg/kg/injection, schedule: Q04DX002 (ip), vehicle: Klucel (hydroxypropylcellulose) (HPC)): 98 % of control
T/C (endpoint: mean survival time, dose: 165.0 mg/kg/injection, schedule: Q04DX002 (ip), vehicle: Klucel (hydroxypropylcellulose) (HPC)): 98 % of control
T/C (endpoint: mean survival time, dose: 200.0 mg/kg/injection, schedule: Q04DX002 (ip), vehicle: Klucel (hydroxypropylcellulose) (HPC)): 98 % of control
T/C (endpoint: mean survival time, dose: 330.0 mg/kg/injection, schedule: Q04DX002 (ip), vehicle: Klucel (hydroxypropylcellulose) (HPC)): 98 % of control
T/C (endpoint: mean survival time, dose: 400.0 mg/kg/injection, schedule: Q04DX002 (ip), vehicle: Klucel (hydroxypropylcellulose) (HPC)): 97 % of control

CNC(=O)Nc1nccs1
T/C [6]: 105 % of control
T/C [4]: 106 % of control
T/C [5]: 97 % of control

CCCCCC(C(O)C#N)C(O)(C(F)(F)F)C(F)(F)F (centres undefined)
T/C (endpoint: mean survival time, dose: 100.0 mg/kg/injection, schedule: Q04DX003 (ip), vehicle: Klucel (hydroxypropylcellulose) (HPC)): 96 % of control
T/C (endpoint: mean survival time, dose: 200.0 mg/kg/injection, schedule: Q04DX003 (ip), vehicle: Klucel (hydroxypropylcellulose) (HPC)): 96 % of control
T/C (endpoint: mean survival time, dose: 400.0 mg/kg/injection, schedule: Q04DX003 (ip), vehicle: Klucel (hydroxypropylcellulose) (HPC)): 90 % of control

CCOC(=O)CCCCCCCCC(=O)Nc1ccc(-n2[nH]c(=O)cc2C)cc1
T/C [1]: 92 % of control
T/C [2]: 92 % of control
T/C [3]: 87 % of control

CC(=O)N(c1c(-c2ccccc2)nc2ccccc2c1C(=O)O)C1CCCCC1
T/C [4]: 100 % of control
T/C [1]: 102 % of control
T/C [5]: 96 % of control
T/C [2]: 98 % of control
T/C (endpoint: mean survival time, dose: 400.0 mg/kg/injection, schedule: Q01DX009 (ip), vehicle: saline with Tween-80): 90 % of control
T/C [3]: 90 % of control
